# From BindingDB's records for doi:10.1016/j.bmc.2010.01.042 (Nerviano Medical Sciences, 2010)
# Molecular target: 3-phosphoinositide-dependent protein kinase 1 (Homo sapiens) (UniProt O15530)
# Assay: Inhibition of PDK1 by scintillation proximity assay
row,SMILES,IC50 [µM]
1,"CC(C)(C)C(=O)N1Cc2c(n[nH]c2NC(=O)c2cc(F)cc(F)c2)C1(C)C [N-[5-(2,2-Dimethylpropanoyl)-6,6-dimethyl-1,4,5,6-tetrahydropyrrolo[3,4-c]pyrazol-3-yl]-3,5-difluorobenzamide]",> 10
2,CC(C)CC(=O)Nc1[nH]nc2c1CN(C(=O)C1CCN(C)CC1)C2(C)C,> 10
